Drawing on ChEMBL document CHEMBL5120851, “Discovery of indirubin-3'-aminooxy-acetamide derivatives as potent and selective FLT3/D835Y mutant kinase inhibitors for acute myeloid leukemia” (Eur J Med Chem, 2022), this text covers IC50 and GI50 for 29 molecules.

Molecules are shown by their SMILES.

Assay [1] addresses T1, Receptor-type tyrosine-protein kinase FLT3 (Homo sapiens, UniProt P36888).
T1 sequence (P36888 whole entry): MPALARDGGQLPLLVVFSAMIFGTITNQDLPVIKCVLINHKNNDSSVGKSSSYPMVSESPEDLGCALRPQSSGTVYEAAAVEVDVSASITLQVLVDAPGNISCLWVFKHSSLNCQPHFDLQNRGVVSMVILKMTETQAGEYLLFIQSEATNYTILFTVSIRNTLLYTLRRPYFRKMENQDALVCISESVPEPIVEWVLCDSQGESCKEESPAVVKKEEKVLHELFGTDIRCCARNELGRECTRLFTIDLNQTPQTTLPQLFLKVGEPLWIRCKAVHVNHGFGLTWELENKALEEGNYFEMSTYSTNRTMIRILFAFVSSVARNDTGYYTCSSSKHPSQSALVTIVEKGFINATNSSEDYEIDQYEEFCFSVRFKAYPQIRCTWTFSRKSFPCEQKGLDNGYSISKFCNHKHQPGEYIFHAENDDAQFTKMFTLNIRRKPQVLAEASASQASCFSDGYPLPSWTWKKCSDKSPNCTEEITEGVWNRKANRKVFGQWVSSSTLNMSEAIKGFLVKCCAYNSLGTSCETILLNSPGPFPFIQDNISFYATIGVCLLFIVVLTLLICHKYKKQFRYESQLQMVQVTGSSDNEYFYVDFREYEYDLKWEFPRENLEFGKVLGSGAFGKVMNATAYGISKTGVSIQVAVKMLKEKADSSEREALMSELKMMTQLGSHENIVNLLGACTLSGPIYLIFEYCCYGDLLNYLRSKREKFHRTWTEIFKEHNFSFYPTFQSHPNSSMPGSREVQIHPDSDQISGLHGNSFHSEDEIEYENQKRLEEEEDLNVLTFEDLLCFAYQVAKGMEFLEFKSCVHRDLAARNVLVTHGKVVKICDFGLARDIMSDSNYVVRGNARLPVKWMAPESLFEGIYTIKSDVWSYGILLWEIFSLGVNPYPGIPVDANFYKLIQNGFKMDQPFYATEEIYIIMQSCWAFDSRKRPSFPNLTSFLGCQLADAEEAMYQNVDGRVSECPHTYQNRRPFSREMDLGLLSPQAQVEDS
Description: Inhibition of human recombinant His-tagged FLT3 kinase domain (564 to 958 residues) expressed in baculovirus expression system incubated for 30 mins in presence of ATP by HTRF analysis.

Assay [2] concerns the target Receptor-type tyrosine-protein kinase FLT3 (Homo sapiens, UniProt P36888, D835Y). The experiment in a line: Inhibition of human recombinant His-tagged FLT3/D835Y mutant expressed in baculovirus expression system incubated for 30 mins in presence of ATP by HTRF analysis.
Assay [3] has as its system MV4-11. The experiment in a line: Antiproliferative activity against human MV4-11 cells assessed as inhibition of cell growth incubated for 72 hrs by EZ-Cytox colorimetric assay. Type of assay: functional.
Assay [4] concerns MOLM-14. The experiment in a line: Antiproliferative activity against human MOLM-14 cells harboring FLT3 ITD/D835Y double mutant assessed as inhibition of cell growth incubated for 72 hrs by EZ-Cytox colorimetric assay. Type of assay: functional.
Assay [5] relates to MOLM-14. The experiment in a line: Antiproliferative activity against human MOLM-14 cells assessed as inhibition of cell growth incubated for 72 hrs by EZ-Cytox colorimetric assay. Format: functional.
The test system of assay [6] is MOLM-14. Description: Antiproliferative activity against human MOLM-14 cells harboring FLT3 ITD/F691L double mutant assessed as inhibition of cell growth incubated for 72 hrs by EZ-Cytox colorimetric assay. Type of assay: functional.

`O=C1Nc2ccc(F)cc2/C1=C1/Nc2ccccc2/C1=N\OCCS(=O)(=O)N1CCNCC1`: the IC50 in assay [1] and in assay [2] was more than 50 nM each time. For the same molecule, the GI50 in assay [3] was 842 nM.

On to `O=C1Nc2ccc(F)cc2/C1=C1/Nc2ccccc2/C1=N\OCCN1CCNCC1`, for which the GI50 in assay [4] came out at 23.1 nM; in assay [5] it was 25.3 nM; in assay [6] it was 75.6 nM; in assay [3] it was 3.69 nM.

For `CN1CCN(C(=O)CO/N=C2/C(=C3/C(=O)Nc4ccc(F)cc43)Nc3ccccc32)CC1`, the results for the GI50 in assay [4], in assay [5] and in assay [3] were 26.1 nM, 28 nM and 6.49 nM, respectively. The IC50 was 0.93 nM in assay [1] and 0.35 nM in assay [2].

Consider `O=C1Nc2ccc(F)cc2/C1=C1/Nc2ccccc2/C1=N\OCCC(=O)N1CCNCC1`, for which the values for the GI50 in assay [4], in assay [5] and in assay [3] were 112 nM, 111 nM and 29.5 nM, respectively. The IC50 in assay [1] stood at 1.23 nM; in assay [2], 3.41 nM.

Regarding `O=C1Nc2ccc(Cl)cc2/C1=C1/Nc2ccccc2/C1=N\OCC(=O)N1CCNCC1`, the GI50 in assay [4] stood at 12.7 nM; in assay [5] it was 7.22 nM; in assay [3], 0.76 nM. Besides, the IC50 came out at 0.27 nM in assay [1] and 0.2 nM in assay [2].

Turning to `O=C(CO/N=C1/C(=C2/C(=O)Nc3ccc(F)cc32)Nc2ccccc21)NC1CCNCC1`, the GI50 is 25.8 nM in assay [4], 18.6 nM in assay [5] and 3.27 nM in assay [3]. For the same molecule, the IC50 in assay [1] was determined as 2.62 nM; in assay [2], 2.16 nM.

Consider `CN1CCC(NC(=O)CO/N=C2/C(=C3/C(=O)Nc4ccc(Cl)cc43)Nc3ccccc32)CC1`, for which the figures for the GI50 in assay [4], in assay [5] and in assay [3] were 123 nM, 67 nM and 16.2 nM, respectively. Besides, the IC50 is 15 nM in assay [1] and 21.2 nM in assay [2].

On to `O=C1Nc2ccc(F)cc2/C1=C1/Nc2ccccc2/C1=N\OCS(=O)(=O)N1CCNCC1`, for which the GI50 was 30.8 nM in assay [4], 46.2 nM in assay [5] and 9.58 nM in assay [3]. The results for the IC50 in assay [1] and in assay [2] were 3.29 nM and 2.71 nM, respectively.

As for `COc1ccc2c(c1)/C(=C1/Nc3ccccc3/C1=N\OCC(=O)N1CCNCC1)C(=O)N2`, the GI50 in assay [4] was found to be 36.4 nM; in assay [5], 40.4 nM; in assay [3], 8.39 nM. Also, the IC50 amounted to 1.66 nM in assay [1] and 1.61 nM in assay [2].

Take `O=C(CO/N=C1/C(=C2/C(=O)Nc3ccccc32)Nc2ccccc21)NC1CNC1`: the results for the GI50 in assay [4], in assay [5] and in assay [3] were 22.3 nM, 19.6 nM and 4.95 nM, respectively. Moreover, the IC50 was 4.95 nM in assay [1] and 3.25 nM in assay [2].

`CN1CC[C@@H](NC(=O)CO/N=C2/C(=C3/C(=O)Nc4ccccc43)Nc3ccccc32)C1`: the GI50 amounted to 28.6 nM in assay [4], 30.2 nM in assay [5] and 10.5 nM in assay [3]. In addition, the IC50 in assay [1] is 1.4 nM; in assay [2], 2.19 nM.

As to `O=C(CO/N=C1/C(=C2/C(=O)Nc3ccccc32)Nc2ccccc21)NC1CCNCC1`, the GI50 amounted to 23.8 nM in assay [4], 25.6 nM in assay [5] and 7.01 nM in assay [3]. The IC50 in assay [1] came to 2.02 nM; in assay [2] it was 1.12 nM.

As to `NC1CCN(C(=O)CO/N=C2/C(=C3/C(=O)Nc4ccccc43)Nc3ccccc32)CC1`, the results for the GI50 in assay [4], in assay [5] and in assay [3] were 38.9 nM, 48.6 nM and 17.3 nM, respectively. In addition, the results for the IC50 in assay [1] and in assay [2] were 2.07 nM and 3.07 nM, respectively.

As for `CN1CCC(NC(=O)CO/N=C2/C(=C3/C(=O)Nc4ccc(F)cc43)Nc3ccccc32)CC1`, the GI50 in assay [4] worked out at 60.6 nM; in assay [5], 75.9 nM; in assay [3] it was 38.7 nM. Besides, the results for the IC50 in assay [1] and in assay [2] were 7.31 nM and 14.3 nM, respectively.

Regarding `O=C1Nc2ccccc2/C1=C1/Nc2ccccc2/C1=N\OCS(=O)(=O)N1CCNCC1`, in assay [2], the IC50 was found to be 3.78 nM.

On to `O=C1Nc2ccc(OC(F)(F)F)cc2/C1=C1/Nc2ccccc2/C1=N\OCC(=O)N1CCNCC1`, for which the figures for the GI50 in assay [4], in assay [5] and in assay [3] were 87.5 nM, 71.9 nM and 27.4 nM, respectively. Further, the IC50 in assay [1] was found to be 3.65 nM; in assay [2] it was 1.62 nM.

As to `O=C(CO/N=C1/C(=C2/C(=O)Nc3ccccc32)Nc2ccccc21)N[C@H]1CCNC1`, the GI50 amounted to 4.88 nM in assay [4], 5.35 nM in assay [5], 10.7 nM in assay [6] and 0.68 nM in assay [3]. The IC50 in assay [1] turned out to be 0.64 nM; in assay [2], 0.2 nM.

Consider `CN1CCC(NC(=O)CO/N=C2/C(=C3/C(=O)Nc4ccccc43)Nc3ccccc32)CC1`, for which the results for the GI50 in assay [4], in assay [5] and in assay [3] were 56.3 nM, 133 nM and 43.6 nM, respectively. Moreover, the IC50 is 15.8 nM in assay [1] and 53.5 nM in assay [2].

With `NC1CCN(C(=O)CO/N=C2/C(=C3/C(=O)Nc4ccc(F)cc43)Nc3ccccc32)CC1`, the figures for the GI50 in assay [4], in assay [5] and in assay [3] were 28.1 nM, 36.7 nM and 9.76 nM, respectively. Also, the IC50 stood at 2.54 nM in assay [1] and 3.45 nM in assay [2].

With `O=C(CO/N=C1/C(=C2/C(=O)Nc3ccc(Cl)cc32)Nc2ccccc21)NC1CCNCC1`, the GI50 in assay [4] was 35.1 nM; in assay [5], 8.56 nM; in assay [3] it was 1.08 nM. Moreover, the IC50 stood at 1.18 nM in assay [1] and 1.08 nM in assay [2].

`CN1CC(NC(=O)CO/N=C2/C(=C3/C(=O)Nc4ccccc43)Nc3ccccc32)C1`: the values for the GI50 in assay [4], in assay [5] and in assay [3] were 17.9 nM, 17.4 nM and 2.61 nM, respectively. The IC50 in assay [1] turned out to be 0.79 nM; in assay [2], 0.75 nM.

Regarding `O=C1Nc2ccc(Br)cc2/C1=C1/Nc2ccccc2/C1=N\OCC(=O)N1CCNCC1`, the GI50 in assay [4] was found to be 16.1 nM; in assay [5] it was 13.9 nM; in assay [3], 1.27 nM. For the same molecule, the IC50 is 0.67 nM in assay [1] and 0.22 nM in assay [2].

For `CN1CCN(C(=O)CO/N=C2/C(=C3/C(=O)Nc4ccc(Cl)cc43)Nc3ccccc32)CC1`, the figures for the GI50 in assay [4], in assay [5] and in assay [3] were 59.1 nM, 103 nM and 18.3 nM, respectively. Moreover, the IC50 in assay [1] turned out to be 1.3 nM; in assay [2], 0.39 nM.

In the case of `NC1CCN(C(=O)CO/N=C2/C(=C3/C(=O)Nc4ccc(Cl)cc43)Nc3ccccc32)CC1`, the results for the GI50 in assay [4], in assay [5] and in assay [3] were 43.2 nM, 40.3 nM and 10.5 nM, respectively. The IC50 was determined as 1.82 nM in assay [1] and 1.34 nM in assay [2].

Regarding `O=C1Nc2ccccc2/C1=C1/Nc2ccccc2/C1=N\OCCC(=O)N1CCNCC1`, in assay [2], the IC50 was 2.89 nM.

As to `CN1CCN(C(=O)CO/N=C2/C(=C3/C(=O)Nc4ccccc43)Nc3ccccc32)CC1`, the GI50 in assay [4] was found to be 23.5 nM; in assay [5], 27.8 nM; in assay [3], 12.2 nM. For the same molecule, the IC50 in assay [1] was determined as 1.17 nM; in assay [2] it was 0.52 nM.

In the case of `CN1CC[C@H](NC(=O)CO/N=C2/C(=C3/C(=O)Nc4ccccc43)Nc3ccccc32)C1`, the GI50 was 21.1 nM in assay [4], 22.1 nM in assay [5] and 6.12 nM in assay [3]. Also, the IC50 in assay [1] came out at 2.01 nM; in assay [2], 1.91 nM.

On to `O=C1Nc2ccc(I)cc2/C1=C1/Nc2ccccc2/C1=N\OCC(=O)N1CCNCC1`, for which the GI50 is 20.9 nM in assay [4], 23.7 nM in assay [5] and 3.72 nM in assay [3]. The IC50 worked out at 0.8 nM in assay [1] and 0.45 nM in assay [2].

As to `O=C1Nc2ccc(F)cc2/C1=C1/Nc2ccccc2/C1=N\OCC(=O)N1CCNCC1`, the results for the GI50 in assay [4], in assay [5] and in assay [3] were 7.13 nM, 7.17 nM and 1.23 nM, respectively. For the same molecule, the IC50 in assay [1] was 0.29 nM; in assay [2], 0.18 nM.
